Source: PMC12615863, “Improving GRPR-targeting peptides for radiotheranostics application: insights from chelator modifications and α-methyl-L tryptophan substitution” (EJNMMI Radiopharmacy and Chemistry, 2025)

What was measured:
PC-3 cells = assay: In vitro GRPR specificity assay (uptake with or without NOTA-PEG2-RM26 block); format: cell-based, human; conditions: 1 nM radiopeptide, 1 h at 37 °C, block with 1 µM NOTA-PEG2-RM26, n = 3
Protocol: After discarding the medium, the cells were washed with cold (4 °C) phosphate-buffered saline containing 1% w/v bovine serum albumin (PBS/BSA). The radiopeptides (Cf = 1 nM in 1 mL PBS/BSA) were added to all wells. A subset of wells was also treated with an excess of unlabeled GRPR-binding peptide NOTA-PEG2-RM26 (Bjäreback et al. [2025]) (Cf = 1 µM in 1 mL PBS/BSA) to block GRPR. After incubation for 1 h at 37 °C, the supernatant was removed, and the cells were washed and then collected by treating them with 1 M NaOH. The activity of the collected samples was measured with the gamma counter. This assay was performed in triplicate for each radiopeptide.

GRPR = biological target: T1, GRPR (Homo sapiens, UniProt P30550); parameters: method as in PMID 19480415; conditions: LigandTracer, PC-3 cells, previously published data, cited from earlier work
T1 construct: 3 × 10^6 PC-3 cells were seeded in 100 mm Petri dishes; host or cells: PC-3 human prostate cancer cells
T1 sequence (P30550 whole entry): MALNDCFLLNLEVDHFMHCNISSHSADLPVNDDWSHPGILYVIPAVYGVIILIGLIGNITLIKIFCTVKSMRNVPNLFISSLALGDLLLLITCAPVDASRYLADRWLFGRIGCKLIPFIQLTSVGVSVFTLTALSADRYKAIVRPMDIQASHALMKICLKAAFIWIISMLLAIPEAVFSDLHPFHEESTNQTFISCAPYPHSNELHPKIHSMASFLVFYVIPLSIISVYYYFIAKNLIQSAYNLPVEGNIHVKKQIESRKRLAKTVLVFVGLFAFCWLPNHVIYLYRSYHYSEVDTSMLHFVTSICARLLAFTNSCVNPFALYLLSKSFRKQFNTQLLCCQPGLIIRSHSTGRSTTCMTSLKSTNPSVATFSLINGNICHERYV

| Compound | in vitro binding specificity (PC-3 cells) | ka1 (GRPR; 1 and 5 nM) [M⁻¹ s⁻¹] | ka2 (GRPR; 1 and 5 nM) [M⁻¹ s⁻¹] | kd1 (GRPR; 1 and 5 nM) | kd2 (GRPR; 1 and 5 nM) | Bmax1 / Bmax2 (GRPR) |
| --- | --- | --- | --- | --- | --- | --- |
| CC(C)C[C@H](NC(=O)C[C@H](O)[C@H](CC(C)C)NC(=O)[C@H](Cc1c[nH]cn1)NC(=O)CN(C)C(=O)[C@@H](NC(=O)[C@H](C)NC(=O)[C@H](Cc1c[nH]c2ccccc12)NC(=O)[C@H](CCC(N)=O)NC(=O)[C@@H](Cc1ccccc1)NC(=O)CN1CCC(NC(=O)COCCOCCNC(=O)CN2CCN(CC(=O)O)CCN(CC(=O)O)CCN(CC(=O)O)CC2)CC1)C(C)C)C(N)=O [[^177Lu]Lu-PKB1, metal not drawn] | GRPR-mediated activity uptake | – | – | – | – | – |
| DOTAGA-PEG2-Pip-[Sar^11]RM26 [[^177Lu]Lu-AU-RM26-M2] [parent compound, AU-RM26-M2 (DOTAGA-PEG2-Pip-[Sar^11]RM26) labeled with Lu-177, previously reported by the authors] | – | 184000 | 1.08e+06 | 3.53 × 10^–5 1/s | 5.94 × 10^–2 1/s | 0.16 |
